Assay results taken from article PMC12058896, “Potent antimicrobial activity of hydrogel loaded with the antimicrobial peptide, D-Bac8c^2,5 Leu, against monospecies and polymicrobial biofilms of Staphylococcus aureus and Pseudomonas aeruginosa” (Frontiers in Microbiology, 2025).
Values after ≈ are worked out from the molar mass of the structure shown. Marks after values point to notes of the source that are not given here. Non-standard residues stand in square brackets, D forms with d. Residues, ends and D or L forms follow the SMILES beside them.

What was measured:
BH1CC = assay: microbe, parasite or virus in culture; type: cell-based, Staphylococcus aureus; details: 18 h
Description: (§1) Strains used in the study were isolates of methicillin-resistant Staphylococcus aureus (MRSA); USA300 LAC, BH1CC ([O’Neill et al., 2007]), methicillin-sensitive S. aureus (MSSA); SH1000 ([Horsburgh et al., 2002]) and BH48 ([O’Neill et al., 2007]); and Pseudomonas aeruginosa PAO1 (ATCC […]). Clinical isolates were obtained from a previous collection of isolates of infected wounds. Bacteria were grown aerobically at 37°C with shaking at 200 rpm in Brain Heart Infusion (BHI, Oxoid, Ireland). Selective media, Mannitol Salt Agar (SLS, Ireland) and MacConkey agar (SLS, Ireland), for re-isolation of bacterial strains from mixed species biofilms were used. Bolton Broth (Fannin, Ireland) supplemented with 50% bovine heparin plasma (TebuBio, UK), and 5% laked horse blood (Sigma-Aldrich, Ireland) was used to mimic in vivo conditions for static antibiofilm testing. For dynamic biofilm growth Simulated Wound Fluid (SWF) prepared as described previously with slight modification, 3% v/v fetal bovine serum in maximum recovery diluent (Merck, Ireland) was used ([Barbour et al., 2016]).
(§2) Minimum inhibitory concentration (MIC) was determined aerobically using the broth microdilution assay as recommended by the Clinical and Laboratory Standards Institute (CLSI) ([CLSI, 2018]). Briefly, 2-fold serial dilutions of the antimicrobial peptides of interest and conventional antibiotics were prepared in Mueller-Hinton broth (MHB) (Merck, Ireland) in a 96-well round bottom polypropylene plate (ThermoFisher, Ireland). Diluted bacterial suspensions in sterile PBS (Sigma, Ireland) were added to each well resulting in a final cell density of approximately 10^5 colony forming units (CFU)/mL. Microplates were incubated statically for 18 h at 37°C. In each assay, inoculated medium without antimicrobials and uninoculated medium served as growth and sterility controls, respectively. Conventional antibiotics, gentamicin (Merck, Ireland) and mupirocin (SLS, UK), were tested as comparator antimicrobials. The MIC value was defined as the lowest antimicrobial concentration showing no visible growth relative to positive (no antimicrobial agent) and negative controls (BHI alone). Experiments were conducted in triplicate, and independent replicates were performed three times to yield n = 3.

BH48 = assay: microbe, parasite or virus in culture; type: cell-based, Staphylococcus aureus; details: 18 h
Description: as §1, §2

SH1000 = assay: microbe, parasite or virus in culture; type: cell-based, Staphylococcus aureus; details: SH1000, 18 h
Description: as §1, §2

USA300 = assay: microbe, parasite or virus in culture; type: cell-based, Staphylococcus aureus; details: USA300, 18 h
Description: as §1, §2

PAO1 = assay: microbe, parasite or virus in culture; type: cell-based, Pseudomonas aeruginosa; details: PAO1, 18 h
Description: as §1, §2

[1] = test system: PAO1 + SH1000 polymicrobial biofilm; assay: Static polymicrobial biofilm, CFU enumeration; type: cell-based, S. aureus + P. aeruginosa; details: 6 h, 37°C
Description: (§3) Biofilms were formed under static conditions using flat 96-well polystyrene plates as described previously with few modifications ([Nasreddine et al., 2018]). Briefly, overnight cultures in BHI were washed and diluted 1:200 in fresh Bolton Broth media supplemented with 50% bovine heparin plasma, and 5% laked horse blood. From this suspension, 100 μL was used to inoculate the microtiter plate wells prior to static incubation at 37°C for 24 h, 3 days and 5 days. The media in each well was changed daily during prolonged incubation periods (3 and 5 days). Following the initial incubation period and washing, 100 μL of D-Bac8c^2,5 Leu, was added to each test well at 37°C for 6 h at a concentration range of 64–256 μg/mL. After incubation with D-Bac8c^2,5 Leu, biofilms were washed twice with PBS and biofilm assessment was performed. For the polymicrobial biofilms, a bacterial solution ratio 1:1 of S. aureus and P. aeruginosa at 1 × 10^5 CFU/mL each was used to inoculate the wells. In each assay, inoculated medium without antimicrobials and uninoculated medium served as growth and sterility controls, respectively. Experiments were conducted in triplicate, and independent replicates were performed three times to yield n = 3.
(§4) After treatment, formed biofilms were washed twice with sterile PBS and then suspended in TrypLE solution (Gibco, Dublin, Ireland). A serial of 10-fold dilutions of the suspended biofilms were performed in 96-well flat bottom microplates. Then 10 μL of each dilution was plated in triplicate on MH agar using the drop method. For polymicrobial biofilms, dilutions were plated on Mannitol Salt Agar and MacConkey Agar. After overnight incubation at 37°C, CFU were counted and results were expressed as log10CFU/mL.

[2] = test system: PAO1 + USA300 polymicrobial biofilm; assay: Static polymicrobial biofilm, CFU enumeration; type: cell-based, S. aureus + P. aeruginosa; details: 24 h biofilm PAO1 + USA300, 256 μg/mL, 6 h, 37°C
Description: as §3, §4

HaCaT = assay: MTT cell viability; type: cell-based, human; details: 24 h, 37°C, 5% CO2, average of three independent experiments
THP-1 = type: cell-based, human; details: 24 h
Description: Sigma-Aldrich, Ireland). […] At 90% confluence, cells were centrifuged and diluted to a 1:5 ratio with complete RPMI. THP-1 cells were seeded in a 96 well plate at a density of 1 × 10^5 cells/mL with increasing concentrations of D-Bac8c^2,5 Leu. Cells were incubated for 24 h at 37°C with 5% CO2, 95% humidity. […] The absorbance was measured at 595 nm in a microplate spectrophotometer. Cell viability was calculated as a percentage of a control treated with PBS. Two technical replicates were performed each day on three independent days.

[3] = test system: tested strains (SH1000, BH48, USA300, BH1CC, PAO1); assay: In vitro serial passage, induction of resistance; type: cell-based, S. aureus and P. aeruginosa; details: subculturing for 14 days at sub-MIC concentrations
Description: This assay was performed as outlined previously with some modifications ([Ge et al., 1999]; [Mohan et al., 2019]). Briefly, the in vitro serial passage study involved exposing bacteria diluted to 10^4 CFU/mL in cationic adjusted Muller Hinton Broth (Merck, Ireland) to D-Bac8c^2,5 Leu at one-half of the previously established bactericidal concentration. After 90 min of incubation at 37°C, 10 μL was plated in triplicate on MH agar and incubated again overnight. Post-incubation, surviving colonies were harvested, diluted in PBS and re-adjusted to 1 × 10^4 CFU/mL before repeated treatment with the sub-bactericidal concentration. This concentration was determined prior to the initiation of the study and after the 4th, 7th, 11th, and 14th passages. If the concentration after these passages was greater than the original determinate, then at passages […], the amount of peptide used during the bacterial challenge was increased. This was continued over a 14-day course. This assay was performed in independent duplicates.

## CC(C)C[C@@H](NC(=O)[C@H](N)CCCNC(=N)N)C(=O)N[C@H](Cc1c[nH]c2ccccc12)C(=O)N[C@@H](C(=O)N[C@H](CC(C)C)C(=O)N[C@H](Cc1c[nH]c2ccccc12)C(=O)N[C@H](CCCNC(=N)N)C(=O)N[C@H](CCCNC(=N)N)C(N)=O)C(C)C [D-Bac8c^2,5 Leu] (H-[dR][dL][dW][dV][dL][dW][dR][dR]-NH2; N-terminus assumed)
BH1CC
  MIC: 8 µg/mL (≈ 6.76 µM)
BH48
  MIC: 8 µg/mL (≈ 6.76 µM)
SH1000
  MIC: 8 µg/mL (≈ 6.76 µM)
USA300
  MIC: 8 µg/mL (≈ 6.76 µM)
PAO1
  MIC: 16 µg/mL (≈ 13.5 µM)
[1]; 24 h biofilm PAO1 + SH1000, 64 μg/mL, left column of pair under S. aureus + P. aeruginosa
  Log change vs. untreated control: −0.6 Log
[1]; 24 h biofilm PAO1 + SH1000, 64 μg/mL, right column of pair under S. aureus + P. aeruginosa
  Log change vs. untreated control: −0.64 Log
[1]; 24 h biofilm PAO1 + SH1000, 128 μg/mL, left column of pair
  Log change vs. untreated control: −1.65* Log
[1]; 24 h biofilm PAO1 + SH1000, 128 μg/mL, right column of pair
  Log change vs. untreated control: −1.61* Log
[1]; 24 h biofilm PAO1 + SH1000, 256 μg/mL
  Log change vs. untreated control: −3.78*** Log
[2]
  Log change vs. untreated control: −2.44*** Log
HaCaT
  IC50 (50% cell viability), MTT: 426.7 µg/mL (≈ 361 µM)
THP-1
  IC50 (50% cell viability), MTT: 331.7 µg/mL (≈ 280 µM)
[3]
  development of resistance (change in MIC): not accompanied by increased resistance
